Results reported in patent publication US9388140B2, “Substituted benzimidazoles” (priority 2011, dated 2016).

Biological target: human kinase Mps-1 (Homo sapiens (Human), UniProt P33981)
Assay: Mps-1 kinase assay (TR-FRET)
Assay type: biochemical
Details: N-terminally GST-tagged human full length recombinant Mps-1; 10 μM ATP; 1 μM biotinylated peptide substrate; read-out: Mps1 IC50
Experimental: The human kinase Mps-1 phosphorylates a biotinylated substrate peptide. Detection of the phosphorylated product is achieved by time-resolved fluorescence resonance energy transfer (TR-FRET) from Europium-labelled anti-phospho-Serine/Threonine antibody as donor to streptavidin labelled with cross-linked allophycocyanin (SA-XLent) as acceptor. Compounds are tested for their inhibition of the kinase activity.
N-terminally GST-tagged human full length recombinant Mps-1 kinase (purchased from Invitrogen, Karslruhe, Germany, cat. no PV4071) was used. As substrate for the kinase reaction a biotinylated peptide of the amino-acid sequence […] (C-terminus in amide form, purchased from Biosynthan GmbH, Berlin) was used.
The concentration of Mps-1 in the assay was adjusted to the activity of the enzyme lot and was chosen appropriate to have the assay in the linear range, typical enzyme concentrations were in the range of about 1 nM (final conc. in the 5 μl assay volume).
The resulting mixture was incubated 1 h at 22° C. to allow the binding of the phosphorylated peptide to the anti-phospho(Ser/Thr)-Europium-antibody. Subsequently the amount of phosphorylated substrate was evaluated by measurement of the resonance energy transfer from the Europium-labelled anti-phospho(Ser/Thr) antibody to the Streptavidin-XLent.

Chain of human kinase Mps-1 (P33981 whole entry): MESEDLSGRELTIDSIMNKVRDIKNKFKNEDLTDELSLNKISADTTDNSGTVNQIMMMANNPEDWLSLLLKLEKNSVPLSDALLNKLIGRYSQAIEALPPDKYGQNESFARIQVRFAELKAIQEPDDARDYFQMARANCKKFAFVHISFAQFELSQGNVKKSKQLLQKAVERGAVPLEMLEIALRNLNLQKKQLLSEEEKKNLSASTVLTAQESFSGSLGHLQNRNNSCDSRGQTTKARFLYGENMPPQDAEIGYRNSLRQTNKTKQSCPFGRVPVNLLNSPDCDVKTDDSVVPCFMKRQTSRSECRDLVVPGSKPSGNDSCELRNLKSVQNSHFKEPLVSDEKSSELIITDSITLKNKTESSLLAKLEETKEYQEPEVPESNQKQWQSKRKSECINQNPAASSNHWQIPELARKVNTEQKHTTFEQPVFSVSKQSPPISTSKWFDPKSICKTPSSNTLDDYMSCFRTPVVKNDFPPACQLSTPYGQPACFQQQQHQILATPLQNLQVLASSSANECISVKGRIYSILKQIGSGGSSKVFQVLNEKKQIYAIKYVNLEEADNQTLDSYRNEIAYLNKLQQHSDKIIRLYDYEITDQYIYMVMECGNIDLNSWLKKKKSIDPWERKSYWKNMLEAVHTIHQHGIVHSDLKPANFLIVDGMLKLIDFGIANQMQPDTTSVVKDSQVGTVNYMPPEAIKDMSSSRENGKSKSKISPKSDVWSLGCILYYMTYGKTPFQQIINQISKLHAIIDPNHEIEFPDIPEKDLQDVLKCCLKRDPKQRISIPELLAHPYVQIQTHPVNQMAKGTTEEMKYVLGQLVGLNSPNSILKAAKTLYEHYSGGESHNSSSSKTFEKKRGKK

Row | SMILES | IC50
1 | Cc1cc(-n2cnc3c(NCCC(F)(F)F)cc(Oc4ccc(O)c(F)c4)cc32)ccc1C(=O)NC1CC1 [Example 83, N-cyclopropyl-4-{6-(3-fluoro-4-hydroxyphenoxy)-4-[(3,3,3-trifluoropropyl)amino]-1H-benzimidazol-1-yl}-2-methylbenzamide] | 0.7 nM
2 | Cc1cc(-n2cnc3c(NCCC(F)(F)F)cc(Oc4cccc(F)c4)cc32)ccc1C(=O)NC1(C#N)CC1 [Example 13, N-(1-cyanocyclopropyl)-4-{6-(3-fluorophenoxy)-4-[(3,3,3-trifluoropropyl)amino]-1H-benzimidazol-1-yl}-2-methylbenzamide] | 48.7 nM
3 | Cc1cc(-n2cnc3c(NCC4CCOCC4)cc(Oc4ccc(Cl)cc4)cc32)ccc1C(=O)NC1CC1 [Example 23, 4-{6-(4-Chlorophenoxy)-4-[(tetrahydro-2H-pyran-4-ylmethyl)amino]-1H-benzimidazol-1-yl}-N-cyclopropyl-2-methylbenzamide] | 2.2 nM
4 | Cc1cc(-n2cnc3c(NCCC(F)(F)F)cc(Nc4ccccc4O)cc32)ccc1C(=O)NC1CC1 [Example 82, N-cyclopropyl-4-{6-[(2-hydroxyphenyl)amino]-4-[(3,3,3-trifluoropropyl)amino]-1H-benzimidazol-1-yl}-2-methylbenzamide] | 3.9 nM
5 | COc1ccc(C(O)c2cc(NCCC(F)(F)F)c3ncn(-c4ccc(C(=O)NC5CC5)c(C)c4)c3c2)cc1F (centres unmarked) [Example 102, N-cyclopropyl-4-{6-[(3-fluoro-4-methoxyphenyl)(hydroxy)methyl]-4-[(3,3,3-trifluoropropyl)amino]-1H-benzimidazol-1-yl}-2-methylbenzamide] | 1.8 nM
6 | CNC(=O)c1ccc(-n2cnc3c(NCCC(F)(F)F)cc(Oc4ccc(O)cc4F)cc32)cc1C [Example 97, 4-{6-(2-fluoro-4-hydroxyphenoxy)-4-[(3,3,3-trifluoropropyl)amino]-1H-benzimidazol-1-yl}-N,2-dimethylbenzamide] | 4.6 nM
7 | CCNC(=O)c1ccc(-n2cnc3c(NCCC(F)(F)F)cc(Oc4cccc(O)c4)cc32)cc1C [Example 95, N-ethyl-4-{6-(3-hydroxyphenoxy)-4-[(3,3,3-trifluoropropyl)amino]-1H-benzimidazol-1-yl}-2-methylbenzamide] | 5.6 nM
8 | CNC(=O)c1ccc(-n2cnc3c(NCC4CCOCC4)cc(Oc4ccc(OC)c(F)c4)cc32)cc1C [Example 42, 4-{6-(3-Fluoro-4-methoxyphenoxy)-4-[(tetrahydro-2H-pyran-4-ylmethyl)amino]-1H-benzimidazol-1-yl}-N,2-dimethylbenzamide] | 4.9 nM
9 | Cc1cc(-n2cnc3c(NCCC(F)(F)F)cc(Oc4cccc(F)c4O)cc32)ccc1C(=O)NC1CC1 [Example 91, N-cyclopropyl-4-{6-(3-fluoro-2-hydroxyphenoxy)-4-[(3,3,3-trifluoropropyl)amino]-1H-benzimidazol-1-yl}-2-methylbenzamide] | 0.4 nM
10 | CNC(=O)c1ccc(-n2cnc3c(NCCC(F)(F)F)cc(Oc4cccc(O)c4)cc32)cc1C [Example 94, 4-{6-(3-hydroxyphenoxy)-4-[(3,3,3-trifluoropropyl)amino]-1H-benzimidazol-1-yl}-N,2-dimethylbenzamide] | 3.1 nM
11 | Cc1cc(-n2cnc3c(NCC4CCOCC4)cc(-c4ccccc4CO)cc32)ccc1C(=O)NC1CC1 [Example 20, N-cyclopropyl-4-{6-[2-(hydroxymethyl)phenyl]-4-[(tetrahydro-2H-pyran-4-ylmethyl)amino]-1H-benzimidazol-1-yl}-2-methylbenzamide] | 1.5 nM
12 | CCNC(=O)c1ccc(-c2cc(NCCC(F)(F)F)c3ncn(-c4ccc(C(=O)NC5CC5)c(C)c4)c3c2)cc1C [Example 53, 4-{1-[4-(Cyclopropylcarbamoyl)-3-methylphenyl]-4-[(3,3,3-trifluoropropyl)amino]-1H-benzimidazol-6-yl}-N-ethyl-2-methylbenzamide] | 1.9 nM
13 | Cc1cc(-n2cnc3c(NCCC(F)(F)F)cc(-c4ccncc4)cc32)ccc1C(=O)NC1CC1 [Example 2, N-cyclopropyl-2-methyl-4-{6-(pyridin-4-yl)-4-[(3,3,3-trifluoropropyl)amino]-1H-benzimidazol-1-yl}benzamide] | 0.2 nM
14 | CCNC(=O)c1ccc(-n2cnc3c(NCC4CCOCC4)cc(Oc4ccc(O)c(F)c4)cc32)cc1C [Example 113A, N-ethyl-4-{6-(3-fluoro-4-hydroxyphenoxy)-4-[(tetrahydro-2H-pyran-4-ylmethyl)amino]-1H-benzimidazol-1-yl}-2-methylbenzamide] | 6.3 nM
15 | CNC(=O)c1ccc(-n2cnc3c(NCC4CCOCC4)cc(Oc4ccc(O)c(F)c4)cc32)cc1C [Example 112, 4-{6-(3-fluoro-4-hydroxyphenoxy)-4-[(tetrahydro-2H-pyran-4-ylmethyl)amino]-1H-benzimidazol-1-yl}-N,2-dimethylbenzamid] | 3.6 nM
16 | CNC(=O)c1ccc(-n2cnc3c(NCC4CCOCC4)cc(Oc4ccc(O)cc4F)cc32)cc1C [Example 115A, 4-{6-(2-fluoro-4-hydroxyphenoxy)-4-[(tetrahydro-2H-pyran-4-ylmethyl)amino]-1H-benzimidazol-1-yl}-N,2-dimethylbenzamide] | 7.3 nM
17 | Cc1cc(-n2cnc3c(NCCC(F)(F)F)cc(Oc4cccc(C(=O)NC5CC5)c4)cc32)ccc1C(=O)NC1CC1 [Example 79, N-cyclopropyl-4-{6-[3-(cyclopropylcarbamoyl)phenoxy]-4-[(3,3,3-trifluoropropyl)amino]-1H-benzimidazol-1-yl}-2-methylbenzamide] | 3.9 nM
18 | COc1ccc(C(C)c2cc(NCCC(F)(F)F)c3ncn(-c4ccc(C(=O)NC5CC5)c(C)c4)c3c2)cc1F (racemic) [Example 105, N-cyclopropyl-4-{6-[(1RS)-1-(3-fluoro-4-methoxyphenyl)ethyl]-4-[(3,3,3-trifluoropropyl)amino]-1H-benzimidazol-1-yl}-2-methylbenzamide] | 2.9 nM
19 | COc1ccc(Oc2cc(NCCC(F)(F)F)c3ncn(-c4ccc(C(=O)NC5CC5)c(C)c4)c3c2)c(F)c1 [Example 29, N-cyclopropyl-4-{6-(2-fluoro-4-methoxyphenoxy)-4-[(3,3,3-trifluoropropyl)amino]-1H-benzimidazol-1-yl}-2-methylbenzamide] | 0.9 nM
20 | CCNC(=O)c1ccc(-n2cnc3c(NCCC(F)(F)F)cc(Oc4ccc(O)cc4F)cc32)cc1C [Example 98, N-ethyl-4-{6-(2-fluoro-4-hydroxyphenoxy)-4-[(3,3,3-trifluoropropyl)amino]-1H-benzimidazol-1-yl}-2-methylbenzamide] | 4.6 nM
21 | CCNC(=O)c1ccc(-n2cnc3c(NCC4CCOCC4)cc(Oc4ccc(OC)cc4F)cc32)cc1C [Example 87, N-ethyl-4-{6-(2-fluoro-4-methoxyphenoxy)-4-[(tetrahydro-2H-pyran-4-ylmethyl)amino]-1H-benzimidazol-1-yl}-2-methylbenzamide] | 11.4 nM
22 | CNC(=O)c1ccc(-n2cnc3c(NCCC(F)(F)F)cc(-c4ccnn4C)cc32)cc1C [Example 32, N, 2-dimethyl-4-{6-(1-methyl-1H-pyrazol-5-yl)-4-[(3,3,3-trifluoropropyl)amino]-1H-benzimidazol-1-yl}benzamide] | 20.2 nM
23 | COc1ccc(Cc2cc(NCCC(F)(F)F)c3ncn(-c4ccc(C(=O)NC5CC5)c(C)c4)c3c2)cc1F [Example 106, N-cyclopropyl-4-{6-(3-fluoro-4-methoxybenzyl)-4-[(3,3,3-trifluoropropyl)amino]-1H-benzimidazol-1-yl}-2-methylbenzamide] | 0.9 nM
24 | CCNC(=O)c1ccc(-n2cnc3c(NCC4CCOCC4)cc(Oc4ccc(OC)cc4SC)cc32)cc1C [Example 117B, N-ethyl-4-[6-{4-methoxy-2-(methylsulfanyl)phenoxy]-4-[(tetrahydro-2H-pyran-4-ylmethyl)amino]-1H-benzimidazol-1-yl}-2-methylbenzamide] | 25.8 nM
25 | CCNC(=O)c1ccc(-n2cnc3c(NCCC(F)(F)F)cc(Oc4ccc(OC)c(F)c4)cc32)cc1C [Example 34, N-ethyl-4-{6-(3-fluoro-4-methoxyphenoxy)-4-[(3,3,3-trifluoropropyl)amino]-1H-benzimidazol-1-yl}-2-methylbenzamide] | 5.8 nM
26 | CNC(=O)c1ccc(-n2cnc3c(NCCC(F)(F)F)cc(Oc4ccc(O)c(F)c4)cc32)cc1C [Example 99, 4-{6-(3-fluoro-4-hydroxyphenoxy)-4-[(3,3,3-trifluoropropyl)amino]-1H-benzimidazol-1-yl}-N,2-dimethylbenzamide] | 2.4 nM
27 | CNC(=O)c1ccc(-n2cnc3c(NCC4CCOCC4)cc(Oc4cccc(F)c4F)cc32)cc1C [Example 84, 4-{6-(2,3-difluorophenoxy)-4-[(tetrahydro-2H-pyran-4-ylmethyl)amino]-1H-benzimidazol-1-yl}-N,2-dimethylbenzamide] | 3.4 nM
28 | Cc1cc(-n2cnc3c(NCCC(F)(F)F)cc(Oc4cccc(S(F)(F)(F)(F)F)c4)cc32)ccc1C(=O)NC1CC1 [Example 96, N-cyclopropyl-2-methyl-4-{6-[3-(pentafluoro-lambda^6-sulfanyl)phenoxy]-4-[(3,3,3-trifluoropropyl)amino]-1H-benzimidazol-1-yl}benzamide] | 4.8 nM
29 | Cc1cc(-n2cnc3c(NCCC(F)(F)F)cc(-c4ccnn4C)cc32)ccc1C(=O)NC1CC1 [Example 30, N-cyclopropyl-2-methyl-4-{6-(1-methyl-1H-pyrazol-5-yl)-4-[(3,3,3-trifluoropropyl)amino]-1H-benzimidazol-1-yl}benzamide] | 4.8 nM
